The test system of series [1] is colon tumor cell lines KM12. The experiment in a line: standard tumor growth inhibition assay, KM12. It counts as cell-based. To be noted: Homo sapiens, KM12, read-out: GI50 (KM12). On the procedure: (§1) These GI50's were determined using the standard tumor growth inhibition assays, similar to that described in detail for the HT29 cell line above, and the following cell lines: colon tumor cell lines KM12, lung cancer cell line H460 and lung cancer cell line A549 (all are NCI standard tumor cell lines).

Series [2] deals with lung cancer cell line H460. The experiment in a line: standard tumor growth inhibition assay, H460. It counts as cell-based. Particulars: Homo sapiens, NCI-H460, read-out: GI50 (H460). On the procedure:
as §1

The subject of a further series is c-Src 3T3 cells. Kind of series: BrdU cell growth inhibition assay, c-Src 3T3. Format: cell-based, mouse. As for the experimental part: (§2) The GI50s for several of the compounds of the invention were assayed as described herein.
The c-Src 3T3 is a mouse fibroblast NIH 3T3 normal cell line that has been transfected with a point-mutant of human c-Src wherein tyrosine 527 has been converted to a phenylalanine. This mutation results in “constitutively active” c-Src because phosphorylation on tyrosine 527 results in auto-inhibition of Src by having it fold back on its own SH2 domain. With a Phe there, this phosphorylation can't occur and therefore auto-inhibition can't occur. Thus, the always fully active mutant Src then converts the normal mouse fibroblasts into rapidly growing tumor cells. […]
In the BrdU Assay for cell growth inhibition, quantitation of cell proliferation was based on the measurement of BrdU incorporation during DNA synthesis. […]
The growth inhibition (GI) is determined from the formula GI=(T0−Tn×100/T0−CONn) where T0 is the BrdU growth of untreated cells at time “0”, Tn is the BrdU growth of treated cells at day “n” and CONn is the control BrdU growth of control cells at day “n”. […]
Seeded 96 well plates were allowed to attach overnight for 18-24 hours, either at 37° C. and 5% CO2 for HT-29 or at 37° C. and 10% CO2 for c-Src 3T3. Approx 18-24 hours after seeding, the initial growth of cells (T0) was determined for untreated cells using the BrdU assay. […]

Another series has as its system Daoy. Kind of series: brain tumor cell line growth inhibition, Daoy. It counts as cell-based. Particulars: Homo sapiens, desmoplastic cerebellar medulloblastoma. As for the experimental part: (§3) These GI50s were determined using standard tumor growth inhibition assays.
A further series concerns SK-N-FI. The experiment in a line: brain tumor cell line growth inhibition, SK-N-FI. Format: cell-based. Particulars: Homo sapiens, neuroblastoma. As for the experimental part:
as §3

A further series concerns GL261. The experiment in a line: brain tumor cell line growth inhibition, GL261. It counts as cell-based. Particulars: GL261, mouse glioblastoma. On the procedure: as §3
A further series deals with LN-18. The experiment in a line: brain tumor cell line growth inhibition, LN-18. It counts as cell-based. To be noted: Homo sapiens; LN-18, glioblastoma; glioma. As for the experimental part: as §3
A further series concerns SW1088. The experiment in a line: brain tumor cell line growth inhibition, SW1088. To be noted: Homo sapiens; SW1088, astrocytoma. It counts as cell-based. On the procedure: as §3
A short description of series [3]: body weight in GL261 glioma survival study. It counts as in vivo, C57BL/6 mice. As for the experimental part:
(§4) The studies were conducted in C57BL/6 mice. GL261 glioma cells (1×10^5 in 5 μl DMEM) were implanted intracranial coordinates: bregma, lateral 2.0 mm, anterior 1.2 mm, 3.0 mm depth dura. Treatment was initiated 3 days post implantation.
FIGS. 2A-F show the weight gain in each of the C57BL/6 mice in the different treatment groups. The average weight at endpoint for each of the treatment groups is shown below in Table 12. FIG. 3 is a graph showing the average weights over a 40-day period for each of the treatment groups.

Another series concerns U87. Kind of series: brain tumor cell line growth inhibition, U87. It counts as cell-based. Particulars: Homo sapiens, U-87 MG; U87, glioblastoma; astrocytoma. On the procedure:
as §3

In a further series the test system is SK-N-MC. Kind of series: brain tumor cell line growth inhibition, SK-N-MC. Particulars: Homo sapiens, neuroepithelioma. It counts as cell-based. On the procedure: as §3
The next series relates to HT29 cell line. The experiment in a line: BrdU cell growth inhibition assay, HT-29. It counts as cell-based. To be noted: Homo sapiens. As for the experimental part: as §2
The HT29 cell line is a NCI standard human colon carcinoma cell line. […] HT29 cells were routinely cultured in McCoy's 5A medium supplemented with Fetal Bovine Serum (1.5% v/v) and L-glutamine (2 mM).
In the BrdU Assay for cell growth inhibition, quantitation of cell proliferation was based on the measurement of BrdU incorporation during DNA synthesis. The Cell Proliferation ELISA BrdU assay kit (colorimetric) was obtained from Roche Applied Science and performed as per vendor instructions.
The growth inhibition (GI) is determined from the formula GI=(T0−Tn×100/T0−CONn) where T0 is the BrdU growth of untreated cells at time “0”, Tn is the BrdU growth of treated cells at day “n” and CONn is the control BrdU growth of control cells at day “n”. The GI50 was extrapolated and the data plotted using XL-Fit 4.0 software.
For 96 well culture plate experiments, c-Src 3T3 medium was supplemented with 10 mM HEPES buffer. […]
Seeded 96 well plates were allowed to attach overnight for 18-24 hours, either at 37° C. and 5% CO2 for HT-29 or at 37° C. and 10% CO2 for c-Src 3T3. Approx 18-24 hours after seeding, the initial growth of cells (T0) was determined for untreated cells using the BrdU assay. […] Plates were assayed for BrdU and the data analyzed as above for GI50. […]

In the next series the test system is GL261 glioma. Kind of series: intracranial GL261 glioma survival study. Format: in vivo, C57BL/6 mice. Particulars: 5 mg/kg weekly oral. As for the experimental part: as §4
The median survival range and the log-rank (Mantel-Cox) statistical test results comparing the survival distributions of the samples.

Turning to `O=C(Cc1ccc(-c2ccccc2)cc1)NCc1cccc(F)c1` [Compound 2], the GI50 (as a rule, the concentration that inhibits growth by half) in series [1] worked out at 410 nM; in [2] it was 890 nM.

`O=C(Cc1ccc(-c2ccc(OCCN3CCOCC3)cc2)cn1)NCc1cccc(F)c1` [Compound 38]: in the series with c-Src 3T3 cells, the “GI50 (c-Src 3T3)” value was “inactive”.

Consider `O=C(Cc1ccc(-c2ccc(OCCN3CCOCC3)cc2)cn1)NCc1ccccc1` [Compound 134, 2-(5-(4-(2-morpholinoethoxy)phenyl)pyridin-2-yl)-N-benzylacetamide], for which the IC50 – broadly, the midpoint of a concentration-inhibition curve – in the series with Daoy worked out at 13.6 nM; in the series on SK-N-FI, 1.7 nM; with GL261 it was 13.7 nM; in the series with LN-18, 14.5 nM; in the series with SW1088, 76.1 nM; in the series on U87, 33.1 nM. In the series with SK-N-MC, the IC50 was determined as 5.8 nM. The “Average weight at endpoint” value in series [3] (5 mg/kg (Compound 134, bid)) is 14.3 g.

In the series on HT29 cell line, `CN1CCN(CCOc2ccc(-c3ccc(CC(=O)NCc4cccc(F)c4)nc3)c(F)c2)CC1` [Compound 137] showed a GI50 of 26 nM.

Regarding `Cn1nnc2c(C(N)=O)ncn2c1=O` [Temodar ®, reference compound], in the series on GL261 glioma, the Median survival was determined as 29 and the “survival Range” value is recorded as 26-29. The “Average weight at endpoint” value in series [3] (5 mg/kg (Temodar, once weekly)) is listed as 13.3 g.

(Values after patent publication US8748423B2, “Compositions and methods for the prevention and treatment of cancer” (Kinex Pharmaceuticals, LLC, priority 2010, dated 2014).)
